Results taken from patent US20230027075A1, “SULFONAMIDE COMPOUNDS TARGETING CD73 AND ADENOSINE RECEPTORS” (Aurigene Discovery Technologies Limited, priority 2019, published 2023).
Structures can show the parent of a compound that is named as a salt.

Legend:
A2aR = target: T1, A2aR (Homo sapiens, UniProt P29274); assay: A2aR biochemical assay (TR-FRET binding, Tag-lite A2aR labelled cells, fluorescent antagonist); conditions: 10 nM fluorescent A2aR antagonist; for inhibition at 20 µM: 20 μM compound, vs DMSO control, read-out: % inhibition at 20 μM (Percent inhibition data in A2aR); for IC50: four-parameter curve fit, read-out: Potency (IC50 values) of selected compounds in A2aR, group
T1 construct: expressed in transfected cells
Procedure: The compounds of present invention were assayed for A2aR enzyme binding activity in a TR-FRET based method. Typically, 10 μL of A2aR labelled cells in assay buffer (Tag-lite, 1×) is added to a 384-well plate containing 5 μL of a compound of present invention in final 1% DMSO, serially diluted in 1:5 in a 5-6 point titration. The aforesaid compound and cells are incubated for 30 minutes at room temperature. Next, 5 μL of A2aR antagonist (fluorescent ligand) in assay buffer is added to the plate. The final concentration of A2aR antagonist is 10 nM. Following 30 minutes reaction at room temperature, the plate was read on a plate reader (Ex: 340 nm Em: 615 nm and 665 nm) to measure the binding of test compound to A2aR cells. The results are interpreted as percentage inhibition as presented in Table-2A of binding by the test compound with respect to the DMSO control.

[1] = target: T2, human-CD73 (Trp27-Lys547, His-tag) (Homo sapiens, UniProt P21589); assay: CD73 biochemical assay (colorimetric, Malachite Green phosphate detection); conditions: 2 nM CD73, 50 μM AMP; for inhibition at 20 µM: read-out: % inhibition at 20 μM (Percent inhibition data in CD73); for IC50: four-parameter curve fit, read-out: Potency (IC50 values) of selected compounds in CD73, group
T2 construct: human-CD73 (Trp27-Lys547, His-tag); His-tag
T2 sequence (P21589 27-547): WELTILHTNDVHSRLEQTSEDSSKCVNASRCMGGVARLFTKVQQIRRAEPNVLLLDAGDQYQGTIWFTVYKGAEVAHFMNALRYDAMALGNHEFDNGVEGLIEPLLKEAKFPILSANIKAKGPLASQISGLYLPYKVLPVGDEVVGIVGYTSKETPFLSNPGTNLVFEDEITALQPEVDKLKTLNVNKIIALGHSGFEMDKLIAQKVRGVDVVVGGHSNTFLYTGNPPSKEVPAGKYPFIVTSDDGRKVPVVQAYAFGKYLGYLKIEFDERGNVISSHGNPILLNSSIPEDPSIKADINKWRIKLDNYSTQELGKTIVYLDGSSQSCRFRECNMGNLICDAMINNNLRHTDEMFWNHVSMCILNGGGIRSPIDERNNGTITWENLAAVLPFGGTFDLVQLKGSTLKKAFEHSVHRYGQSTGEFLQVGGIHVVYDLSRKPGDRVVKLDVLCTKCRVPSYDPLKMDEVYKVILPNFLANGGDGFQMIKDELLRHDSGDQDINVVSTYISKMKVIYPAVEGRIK
Procedure: A colorimetric-based method was used for assaying compounds of the invention for CD73 enzyme inhibitory activity. Human CD73 catalyzes the conversion of AMP to adenosine with the release of orthophosphate. A Malachite Green Phosphate Detection kit is used to measure the formation of orthophosphate product. […] A compound of the present invention and enzyme are incubated for 30 minutes at room temperature. Next, 20 μL of AMP in assay buffer is added to the plate. The final concentration of CD73 and AMP are 2 nM and 50 μM respectively. Following 30 minutes reaction at room temperature, 20 μL of Malachite reagent is added to all the reaction wells. The formation of green complex formed between Malachite Green, molybdate and free orthophosphate is measured on a plate reader (620 nm).

T1 sequence (P29274 whole entry): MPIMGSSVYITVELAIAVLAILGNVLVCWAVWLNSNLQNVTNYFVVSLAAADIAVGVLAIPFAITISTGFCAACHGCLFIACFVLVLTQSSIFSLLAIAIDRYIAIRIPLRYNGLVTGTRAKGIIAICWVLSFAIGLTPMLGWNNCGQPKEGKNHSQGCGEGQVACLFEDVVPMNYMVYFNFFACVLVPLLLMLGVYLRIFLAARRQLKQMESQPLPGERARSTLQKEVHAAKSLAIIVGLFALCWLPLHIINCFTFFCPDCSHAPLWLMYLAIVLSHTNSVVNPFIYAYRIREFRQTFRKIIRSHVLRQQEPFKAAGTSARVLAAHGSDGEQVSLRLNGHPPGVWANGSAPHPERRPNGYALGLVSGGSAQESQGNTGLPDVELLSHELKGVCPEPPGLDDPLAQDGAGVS

inhibition at 20 µM (A2aR)	inhibition at 20 µM ([1]; 20 μM compound)	IC50 [1]	IC50 (A2aR)	% inhibition at 20 μM (Percent inhibition data in CD73) ([1]; 20 μM compound, sodium salt)	Structure (SMILES)
83%	63%				COc1c(Cl)cc(S(=O)(=O)Nc2ccc(CCCNc3nc(N)n4nc(-c5ccco5)nc4n3)cc2)cc1C(N)=O [Example A16, 5-(N-(4-(3-((7-amino-2-(furan-2-yl)-[1,2,4]triazolo[1,5-a][1,3,5]triazin-5-yl)amino)propyl)phenyl)sulfamoyl)-3-chloro-2-methoxybenzamide]
82%	95%	110 to 1000 nM			CN(CCCc1ccc(NS(=O)(=O)c2cc(Cl)c(O)c(C(N)=O)c2)cc1)c1nc(N)n2nc(-c3ccco3)nc2n1 [Example A17, 5-(N-(4-(3-((7-amino-2-(furan-2-yl)-[1,2,4]triazolo[1,5-a][1,3,5]triazin-5-yl)(methyl)amino)propyl)phenyl)sulfamoyl)-3-chloro-2-hydroxybenzamide]
82%	87%	> 1000 nM			NC(=O)c1cc(S(=O)(=O)Nc2ccc(CCCCNc3nc(N)n4nc(-c5ccco5)nc4n3)cc2)cc(Cl)c1O [Example A18, 5-(N-(4-(4-((7-amino-2-(furan-2-yl)-[1,2,4]triazolo[1,5-a][1,3,5]triazin-5-yl)amino)butyl)phenyl)sulfamoyl)-3-chloro-2-hydroxybenzamide]
83%	96%	> 1000 nM			NC(=O)c1cc(S(=O)(=O)Nc2ccc(CCCNc3cc4nc(-c5ccco5)nn4c(N)n3)cc2)cc(Cl)c1O [Example A19, 5-(N-(4-(3-((5-amino-2-(furan-2-yl)-[1,2,4]triazolo[1,5-c]pyrimidin-7-yl)amino)propyl)phenyl)sulfamoyl)-3-chloro-2-hydroxybenzamide]
80%	92%	< 100 nM	25.1 to 50 nM		NC(=O)c1cc(S(=O)(=O)Nc2ccc(CCCNc3cc(N)n4nc(-c5ccco5)nc4n3)cc2)cc(Cl)c1O [Example A20, 5-(N-(4-(3-((7-amino-2-(furan-2-yl)-[1,2,4]triazolo[1,5-a]pyrimidin-5-yl)amino)propyl)phenyl)sulfamoyl)-3-chloro-2-hydroxybenzamide]
82%	98%	110 to 1000 nM			NC(=O)c1cc(S(=O)(=O)Nc2ccc(CCCOc3cc(N)n4nc(-c5ccco5)nc4n3)cc2)cc(Cl)c1O [Example A21, 5-(N-(4-(3-((7-amino-2-(furan-2-yl)-[1,2,4]triazolo[1,5-a]pyrimidin-5-yl)oxy)propyl)phenyl)sulfamoyl)-3-chloro-2-hydroxybenzamide]
81%	95%	< 100 nM			NC(=O)c1cc(S(=O)(=O)Nc2ccc(CCCNc3cc(N)n4nc(-c5ccco5)nc4n3)c(F)c2)cc(Cl)c1O [Example A22, 5-(N-(4-(3-((7-amino-2-(furan-2-yl)-[1,2,4]triazolo[1,5-a]pyrimidin-5-yl)amino)propyl)-3-fluorophenyl)sulfamoyl)-3-chloro-2-hydroxybenzamide]
79%	92%	< 100 nM	> 50 nM		NC(=O)c1cc(S(=O)(=O)Nc2ccc(CCCNc3cc(N)n4nc(-c5ccco5)cc4n3)cc2)cc(Cl)c1O [Example A24]
80%				96%	NC(=O)c1cc(S(=O)(=O)Nc2ccc(CCCNc3nc(N)n4nc(-c5ccco5)nc4n3)cc2)cc(Cl)c1O [Example A26, 5-(N-(4-(3-((7-amino-2-(furan-2-yl)-[1,2,4]triazolo[1,5-a][1,3,5]triazin-5-yl)amino)propyl)phenyl)sulfamoyl)-3-chloro-2-hydroxybenzamide sodium salt]
80%	35%				Nc1nc(NCCc2ccc(NS(=O)(=O)c3cc(Cl)c4c(c3)CC(=O)N4)cc2)nc2nc(-c3ccco3)nn12 [Example B1, N-(4-(2-((7-amino-2-(furan-2-yl)-[1,2,4]triazolo[1,5-a][1,3,5]triazin-5-yl)amino)ethyl)phenyl)-7-chloro-2-oxoindoline-5-sulfonamide]
79%	39%				Nc1nc(NCCc2ccc(NS(=O)(=O)c3cc(Cl)c4c(c3)C(Cl)(Cl)C(=O)N4)cc2)nc2nc(-c3ccco3)nn12 [Example B2, N-(4-(2-((7-amino-2-(furan-2-yl)-[1,2,4]triazolo[1,5-a][1,3,5]triazin-5-yl)amino)ethyl)phenyl)-3,3,7-trichloro-2-oxoindoline-5-sulfonamide]
88%	9%				Nc1nc(NCCc2ccc(NS(=O)(=O)c3cc(Cl)c4[nH]ccc(=O)c4c3)cc2)nc2nc(-c3ccco3)nn12 [Example B3, N-(4-(2-((7-amino-2-(furan-2-yl)-[1,2,4]triazolo[1,5-a][1,3,5]triazin-5-yl)amino)ethyl)phenyl)-8-chloro-4-oxo-1,4-dihydroquinoline-6-sulfonamide]
86%	99%				Nc1nc(NCCCc2ccc(NS(=O)(=O)c3cc(Cl)c4oc(=O)[nH]c(=O)c4c3)cc2)nc2nc(-c3ccco3)nn12 [Example B4, N-(4-(3-((7-amino-2-(furan-2-yl)-[1,2,4]triazolo[1,5-a][1,3,5]triazin-5-yl)amino)propyl)phenyl)-8-chloro-2,4-dioxo-3,4-dihydro-2H-benzo[e][1,3]oxazine-6-sulfonamide]
81%	100%	110 to 1000 nM	< 25 nM		NC(=O)c1cc(S(=O)(=O)Nc2ccc(NCCNc3nc(N)n4nc(-c5ccco5)nc4n3)cc2)cc(Cl)c1O [Example C1, 5-(N-(4-((2-((7-amino-2-(furan-2-yl)-[1,2,4]triazolo[1,5-a][1,3,5]triazin-5-yl)amino)ethyl)amino)phenyl)sulfamoyl)-3-chloro-2-hydroxybenzamide]
85%	49%	110 to 1000 nM			NC(=O)c1cc(S(=O)(=O)Nc2ccc3ccn(CCNc4nc(N)n5nc(-c6ccco6)nc5n4)c3c2)cc(Cl)c1O [Example D1, 5-(N-(1-(2-((7-amino-2-(furan-2-yl)-[1,2,4]triazolo[1,5-a][1,3,5]triazin-5-yl)amino)ethyl)-1H-indol-6-yl)sulfamoyl)-3-chloro-2-hydroxybenzamide]
79%	62%	> 1000 nM			NC(=O)c1cc(S(=O)(=O)Nc2cccc3c2cnn3CCNc2nc(N)n3nc(-c4ccco4)nc3n2)cc(Cl)c1O [Example D2, 5-(N-(1-(2-((7-amino-2-(furan-2-yl)-[1,2,4]triazolo[1,5-a][1,3,5]triazin-5-yl)amino)ethyl)-1H-indazol-4-yl)sulfamoyl)-3-chloro-2-hydroxybenzamide]

Structure (SMILES)	inhibition at 20 µM (A2aR)	inhibition at 20 µM ([1]; 20 μM compound)	IC50 [1]	IC50 (A2aR)	% inhibition at 20 μM (Percent inhibition data in CD73) ([1]; 20 μM compound, sodium salt)
COC(=O)[C@@H](NC(=O)Oc1c(Cl)cc(S(=O)(=O)Nc2ccc(CCCNc3nc(N)n4nc(-c5ccco5)nc4n3)cc2)cc1C(N)=O)C(C)C [Example A25, Methyl ((4-(N-(4-(3-((7-amino-2-(furan-2-yl)-[1,2,4]triazolo[1,5-a][1,3,5]triazin-5-yl)amino)propyl)phenyl)sulfamoyl)-2-carbamoyl-6-chlorophenoxy)carbonyl)valinate]	81%	99%	< 100 nM		
